Measured values reported in article PMC9102502, “The Influence of Selected Antipsychotic Drugs on Biochemical Aspects of Alzheimer’s Disease” (International Journal of Molecular Sciences, 2022).
Read-outs that look alike come from different tables or passages of the source.

How the values were obtained:
HUVEC cells = assay: WST-1 viability under AAPH-induced oxidative stress, HUVEC; type: cell-based, human; conditions: AAPH 17.5 mmol/L; for viability of HUVEC under AAPH: relative to pure medium control
Experimental: (§1) WST-1 assay (Takara, Takara Bio Europe, Saint-Germain-en-Laye, France) was used to assess the effects of antipsychotics on the growth of HUVEC and astrocytes. The experiments were conducted as described previously. HUVEC were seeded at a density of 7500 cells, and astrocytes at 5000 cells per well on 96-well microplates and cultured for 24 h followed by treatment with compounds at ½ × TPCmax and TPCmax or pure medium as a control (v = 100 μL) for another 24 h (37 °C, 5% CO2). Subsequently, the cells were washed with culture medium (100 μL) and WST-1 reagent diluted in medium (10 μL of reagent + 90 μL of medium) was added. The plates were incubated at 37 °C in 5% CO2 for another 90 min for HUVEC and 60 min for astrocytes. The absorbance was read at 450 nm using a microplate reader (iMARK, Bio-Rad, Hercules, CA, USA). The cells viability was expressed as a percentage of the control samples which constituted 100% viability.
(§2) Moreover, the WST-1 assay was used to evaluate potential protective effects of antipsychotics on the growth of HUVEC and astrocytes under conditions of AAPH-induced oxidative stress. The experimental conditions were the same as in viability studies. AA at the final concentration of 10 μg/mL was used as an antioxidant control. After reaching the confluence, the antipsychotics were added at concentrations equaling ½ × TPCmax and TPCmax. After 1 h incubation under standard conditions, 50 μL AAPH was added to the wells containing tested compounds or AA. The AAPH concentration was chosen on the basis of preliminary experiments—17.5 mmol/L in HUVEC experiments, and 15.0 mmol/L in the case of astrocytes.

AChE = AChE (Homo sapiens, UniProt P22303); assay: Synergism of antipsychotics with donepezil/rivastigmine (binary mixtures), AChE; conditions: for CI (combination index), AChE: ComboSyn;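 on all read-outs here: antipsychotic concentration kept fixed across all measurements, selected from estimated therapeutic plasma levels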
Description: (§6) In turn, the concentrations of antipsychotics were constant in every measurement, and were chosen on the basis of estimated therapeutic plasma concentrations.
(§7) Automatic simulation of synergism and antagonism at all doses or effect levels is possible by computer software, based on algorithms. Calculation of the combination index (CI) and isobologram analyses enable to quantitatively determine drug interactions, where CI < 1, =1 and >1 indicate synergism, additive effect and antagonism, respectively. […] The software also allowed us to display the dose–effect curve, the median–effect plot and the dose-reduction index (DRI) plot [36].

BuChE = BuChE (Homo sapiens, UniProt P06276); assay: Synergism of antipsychotics with donepezil/rivastigmine (binary mixtures), BuChE;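 further: combination index derived by median-effect analysis of combined drug effects on the cholinesterase, with values below 1 meaning synergism, exactly 1 additivity and above 1 antagonism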
Description: as §6, §7

[1] = target: T1, human erythrocyte acetylcholinesterase (Homo sapiens, UniProt P22303); assay: AChE inhibition, modified Ellman's method; type: biochemical
T1 construct: solution of hemolyzed erythrocytes diluted 400-fold; from tissue; host or cells: hemolyzed erythrocytes from blood of healthy human donors
Experimental: (§3) The activity of both cholinesterases (AChE and BuChE) were assessed spectrophotometrically according to the Ellman’s method with some modifications by Worek et al.. This test development included experimental determination of the optimal testing conditions. For all measurements, 37 °C was used as the best temperature for enzymatic determinations in material of human origin.
(§4) The solution of plasma 200-fold diluted with 0.9% NaCl and solution of hemolyzed erythrocytes diluted 400-fold with 0.9% were incubated (37 °C, 15 min) with 5 μL DTNB (0.01 mol/L) and 10 μL tested compound at a wider range of concentration than the therapeutic range in order to assess the overall effect of the compound on human esterases (AChE and BuChE). The controls without antipsychotics, containing only DTNB and diluted plasma or diluted solution of hemolyzed erythrocytes, were prepared. […] The final volume of a sample was 500 μL. […] The maximal velocity of the reaction was determined on the basis of changes in absorbance over time.
(§5) AChE SI (selectivity index) was calculated by using the following formula: SI = IC50 of BuChE/IC50 of AChE. However, BuChE SI was defined as IC50 of AChE/IC50 of BuChE. Maximal velocity (Vmax) and the Michaelis constant (Km) were calculated with the use of linear regression—according to the Hanes–Woolf plot.

astrocytes = assay: WST-1 viability under AAPH-induced oxidative stress, astrocytes; type: cell-based, human; conditions: for astrocyte viability compared with the control (pure AAPH): benperidol 5 and 10 μg/L, penfluridol 12.5 μg/L, pimozide 15 μg/L, promazine 25 and 50 μg/L
Experimental: as §1, §2

[2] = target: T2, recombinant human β-amyloid (1–42) (Homo sapiens, UniProt P05067); assay: Beta-amyloid aggregation, Thioflavin T fluorescence; type: biochemical
T2 construct: recombinant human β-amyloid (1–42; ultrapure); purchased Sigma-Aldrich (St. Louis, MO, USA)
Experimental: Aβ42 peptide was dissolved in DMSO and left to hydrate for a few minutes. The solution was centrifuged at 10,000 rpm for 5 min at 4 °C to separate any precipitated material. The solution at a concentration of 220 μmol/L was stored in small aliquots at a temperature of −30 °C and before each experiment it was restored at 37 °C for 15 min. Test samples containing Aβ42 solution at the final concentration of 20 μmol/L was incubated with antipsychotics at concentrations equaling their TPC and 1/2 × TPC (v = 10 µL). The final volume of the test samples was 100 μL. The positive control constituted a sample of Aβ42 peptide, whereas the negative control contained tannic acid at the final concentrations of 0.1 µmol/L and 10 µmol/L. The fibrillation reaction was set up by addition of thioflavin ThT dye at a concentration of 5 µmol/L. The fluorescence intensity was measured at room temperature with Ex/Em = 440 nm/484 nm (Synergy H1; BioTek, Winooski, VT, USA). The measurements of fluorescence intensity expressed as relative fluorescence units (RFU) were taken at 10, 30, 60 and 90 min and then after 24 and 48 h. The fluorescence intensity measured for control equaled 100% of Aβ aggregation and it was used to estimate the inhibitory properties of the tested antipsychotics.

[3] = target: T3, human plasma butyrylcholinesterase (Homo sapiens, UniProt P06276); assay: BuChE inhibition, modified Ellman's method; type: biochemical
T3 construct: The solution of plasma 200-fold diluted with 0.9% NaCl; from tissue; host or cells: citrated plasma from blood of healthy human donors
Experimental: as §3, §4, §5

[4] = TPC (bromperidol 25 μg/L, quetiapine 400 μg/L)
[5] = ½ × TPC (bromperidol 12.5 μg/L, quetiapine 200 μg/L)
[6] = donepezil 0.005 μmol/L + antipsychotic at TPCmax, CI < 1 synergism, > 1 antagonism
[7] = donepezil 0.01 μmol/L + antipsychotic at TPCmax
[8] = donepezil 0.02 μmol/L + antipsychotic at TPCmax
[9] = donepezil 0.05 μmol/L + antipsychotic at TPCmax
[10] = donepezil 0.1 μmol/L + antipsychotic at TPCmax
[11] = rivastigmine 5 μmol/L + antipsychotic at TPCmax
[12] = rivastigmine 10 μmol/L + antipsychotic at TPCmax
[13] = rivastigmine 15 μmol/L + antipsychotic at TPCmax
[14] = rivastigmine 25 μmol/L + antipsychotic at TPCmax
[15] = rivastigmine 40 μmol/L + antipsychotic at TPCmax
[16] = rivastigmine 75 μmol/L + antipsychotic at TPCmax
[17] = rivastigmine 100 μmol/L + antipsychotic at TPCmax
[18] = donepezil 2 μmol/L + antipsychotic at TPCmax, ComboSyn
[19] = donepezil 5 μmol/L + antipsychotic at TPCmax, ComboSyn
[20] = donepezil 10 μmol/L + antipsychotic at TPCmax, ComboSyn
[21] = donepezil 20 μmol/L + antipsychotic at TPCmax, ComboSyn
[22] = donepezil 50 μmol/L + antipsychotic at TPCmax, ComboSyn
[23] = donepezil 100 μmol/L + antipsychotic at TPCmax, ComboSyn
[24] = rivastigmine 0.05 μmol/L + antipsychotic at TPCmax, ComboSyn
[25] = rivastigmine 0.1 μmol/L + antipsychotic at TPCmax, ComboSyn
[26] = rivastigmine 0.25 μmol/L + antipsychotic at TPCmax, ComboSyn
[27] = rivastigmine 0.5 μmol/L + antipsychotic at TPCmax, ComboSyn
[28] = rivastigmine 0.75 μmol/L + antipsychotic at TPCmax, ComboSyn
[29] = rivastigmine 1 μmol/L + antipsychotic at TPCmax, ComboSyn
[30] = rivastigmine 2.5 μmol/L + antipsychotic at TPCmax, ComboSyn
[31] = rivastigmine 5 μmol/L + antipsychotic at TPCmax, ComboSyn
[32] = rivastigmine 50 μmol/L + antipsychotic at TPCmax

T3 sequence (P06276 29-602): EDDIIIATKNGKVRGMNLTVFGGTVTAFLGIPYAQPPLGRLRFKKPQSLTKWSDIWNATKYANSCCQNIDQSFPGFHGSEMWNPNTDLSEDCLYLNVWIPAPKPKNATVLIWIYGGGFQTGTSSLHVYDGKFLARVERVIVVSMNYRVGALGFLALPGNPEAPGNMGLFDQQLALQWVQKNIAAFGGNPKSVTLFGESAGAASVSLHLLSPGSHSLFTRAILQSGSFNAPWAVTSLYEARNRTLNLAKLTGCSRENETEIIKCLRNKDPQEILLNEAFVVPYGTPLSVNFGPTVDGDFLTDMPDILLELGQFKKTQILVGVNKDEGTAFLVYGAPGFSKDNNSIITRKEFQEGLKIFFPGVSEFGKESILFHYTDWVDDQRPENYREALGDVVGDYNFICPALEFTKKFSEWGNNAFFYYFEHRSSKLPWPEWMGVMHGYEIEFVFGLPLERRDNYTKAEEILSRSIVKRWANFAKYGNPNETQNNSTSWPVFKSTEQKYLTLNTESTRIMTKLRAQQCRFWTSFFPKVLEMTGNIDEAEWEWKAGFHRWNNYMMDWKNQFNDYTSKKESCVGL
Chain of BuChE (P06276 29-602): as above
Chain of AChE (P22303 32-617 isoform P22303-2 limits assumed): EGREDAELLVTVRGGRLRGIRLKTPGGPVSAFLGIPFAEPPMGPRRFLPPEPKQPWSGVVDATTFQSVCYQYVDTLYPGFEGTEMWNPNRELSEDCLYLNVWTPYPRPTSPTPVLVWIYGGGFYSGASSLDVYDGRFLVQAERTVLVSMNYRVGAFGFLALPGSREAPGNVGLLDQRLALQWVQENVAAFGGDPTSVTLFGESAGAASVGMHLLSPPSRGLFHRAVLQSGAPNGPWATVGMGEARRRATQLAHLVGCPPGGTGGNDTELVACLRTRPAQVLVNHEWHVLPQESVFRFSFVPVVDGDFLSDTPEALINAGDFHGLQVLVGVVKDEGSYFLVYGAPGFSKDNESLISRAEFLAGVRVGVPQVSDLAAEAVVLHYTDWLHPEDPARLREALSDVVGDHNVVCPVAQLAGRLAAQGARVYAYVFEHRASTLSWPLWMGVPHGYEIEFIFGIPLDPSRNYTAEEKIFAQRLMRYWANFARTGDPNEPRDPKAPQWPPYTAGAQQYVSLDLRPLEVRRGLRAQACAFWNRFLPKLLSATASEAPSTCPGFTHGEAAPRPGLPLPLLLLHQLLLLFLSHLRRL
T1 sequence (P22303 32-617 isoform P22303-2 limits assumed): as above
T2 sequence (P05067 672-713 limits assumed): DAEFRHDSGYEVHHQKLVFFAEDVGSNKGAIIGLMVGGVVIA

Row | Structure (SMILES) | CI (combination index), AChE (AChE; [6]) | CI (combination index), AChE (AChE; [7]) | CI (combination index), AChE (AChE; [8]) | CI (combination index), AChE (AChE; [9]) | CI (combination index), AChE (AChE; [10]) | CI (combination index), AChE (AChE; [11]) | CI (combination index), AChE (AChE; [12]) | CI (combination index), AChE (AChE; [13]) | CI (combination index), AChE (AChE; [14]) | CI (combination index), AChE (AChE; [15]) | CI (combination index), AChE (AChE; [16]) | CI (combination index), AChE (AChE; [17]) | CI (combination index), BuChE (BuChE; [18]) | CI (combination index), BuChE (BuChE; [19]) | CI (combination index), BuChE (BuChE; [20]) | CI (combination index), BuChE (BuChE; [21]) | CI (combination index), BuChE (BuChE; [22]) | CI (combination index), BuChE (BuChE; [23]) | CI (combination index), BuChE (BuChE; [24]) | CI (combination index), BuChE (BuChE; [25]) | also measured
1 | OC1(c2ccc(Cl)c(C(F)(F)F)c2)CCN(CCCC(c2ccc(F)cc2)c2ccc(F)cc2)CC1 [Penfluridol, penfluridol] | 0.79 | 0.80 | 0.93 | 0.89 | 0.90 | > 2.50 | 0.75 | 0.73 | 0.92 | 0.97 | 1.06 | 1.06 | 1.21 | 0.98 | 1.04 | 1.03 | 1.14 | 1.21 | 0.64 | 0.68 | viability of HUVEC under AAPH (HUVEC cells; [4]): 82.9%; viability of HUVEC under AAPH (HUVEC cells; [5]): 80.5%; Effect on IC50 AChE of rivastigmine (AChE; binary mixture vs pure rivastigmine ([…]), ↓ lower, ↑ higher IC50, - no change): does not affect; CI (combination index), BuChE (BuChE; [26]): 0.79; CI (combination index), BuChE (BuChE; [27]): 1.01; CI (combination index), BuChE (BuChE; [28]): 1.08; CI (combination index), BuChE (BuChE; [29]): 1.13; CI (combination index), BuChE (BuChE; [30]): 1.28; CI (combination index), BuChE (BuChE; [31]): 1.17; AChE reaction velocity [1]: 0.226 ± 0.012 A/min; astrocyte viability compared with the control (pure AAPH) (astrocytes): statistically significant increase; effect on Aβ aggregation within 10–90 min ([2]; 25 µg/L, at any of these time points): does not inhibit
2 | O=C(CCCN1CCC(O)(c2ccc(Cl)cc2)CC1)c1ccc(F)cc1 [Haloperidol, haloperidol] | > 2.50 | > 2.50 | > 2.50 | 0.37 | 0.09 | 0.39 | 0.55 | 0.60 | 0.70 | 0.71 | 0.86 | 0.82 | 0.71 | 0.67 | 0.79 | 0.77 | 0.84 | 0.87 | 0.61 | 0.44 | CI (combination index), AChE (AChE; [32]): 0.79; decrease of BuChE activity ([3]; 100 µg/L): 9.6 ± 2.3%; BuChE reaction velocity ([3]; 100 µg/L, control 0.252 ± 0.022 A/min): 0.228 ± 0.021 A/min; effect on BuChE activity ([3]; therapeutic concentrations): do not affect; CI (combination index), BuChE (BuChE; [26]): 0.67; CI (combination index), BuChE (BuChE; [27]): 0.87; CI (combination index), BuChE (BuChE; [28]): 1.06; CI (combination index), BuChE (BuChE; [29]): 1.03; CI (combination index), BuChE (BuChE; [30]): 1.19; CI (combination index), BuChE (BuChE; [31]): 1.22; effect on AChE activity ([1]; therapeutic concentrations): do not affect; effect on Aβ aggregation within 90 min of incubation ([2]; both tested concentrations (½ TPC and TPC)): ceases to significantly inhibit
3 | O=c1[nH]c2ccccc2n1C1CCN(CCCC(c2ccc(F)cc2)c2ccc(F)cc2)CC1 [Pimozide, pimozide] | 0.50 | 0.63 | 0.62 | 0.65 | 0.68 | 0.26 | 0.37 | 0.38 | 0.47 | 0.56 | 0.62 | 0.65 | 0.57 | 0.55 | 0.78 | 0.76 | 0.91 | 0.79 | > 2.50 | > 2.50 | viability of HUVEC under AAPH (HUVEC cells; [4]): 65.2%; viability of HUVEC under AAPH (HUVEC cells; [5]): 64.2%; CI (combination index), AChE (AChE; [32]): 0.57; CI (combination index), BuChE (BuChE; [26]): > 2.50; CI (combination index), BuChE (BuChE; [27]): > 2.50; CI (combination index), BuChE (BuChE; [28]): > 2.50; CI (combination index), BuChE (BuChE; [29]): > 2.50; CI (combination index), BuChE (BuChE; [30]): > 2.50; CI (combination index), BuChE (BuChE; [31]): > 2.50; CI (combination index), BuChE (BuChE; rivastigmine (0.05–5 µmol/L) / pimozide at TPCmax, beyond the scale of Figure 5B): above 2.5; AChE reaction velocity ([1]; 25 µg/L, control 0.263 ± 0.011 A/min): 0.253 ± 0.012 A/min; AChE reaction velocity ([1]; 100 µg/L, control 0.263 ± 0.011 A/min): 0.248 ± 0.009 A/min; astrocyte viability compared with the control (pure AAPH) (astrocytes): statistically significant increase; effect on Aβ aggregation after a longer incubation time ([2]; 24 and 48 h, both tested concentrations): substantially inhibit
4 | O=C1O[C@H]([C@@H](O)CO)C(O)=C1O [AA, ascorbic acid] | – | – | – | – | – | – | – | – | – | – | – | – | – | – | – | – | – | – | – | – | viability at 10 µg/mL (HUVEC cells; Homo sapiens, HUVEC, 10 μg/mL): 81 ± 3.4%; viability at 10 µg/mL (astrocytes; Homo sapiens, Astrocyte, 10 μg/mL, AAPH 15 mmol/L): 72.9%
